Experimental data from PubChem BioAssay (NCI).
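In this assay, cells in 96-well plates receive the compound at five concentrations for 48 hours. Endpoints are linearly interpolated between the surrounding concentrations. At the GI50, growth is halved. At the TGI there is no net growth.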

What was measured:
Assay in all cases: NCI tumour cell line growth inhibition, 48 h
IGROV1 ovarian = system: IGROV1 ovarian
HL-60(TB) leukemia = system: HL-60(TB) leukemia
COLO 205 colon = system: COLO 205 colon
T-47D breast = system: T-47D breast
HOP-92 NSCLC = system: HOP-92 NSCLC
NCI-H522 lung = system: NCI-H522 lung
UO-31 renal = system: UO-31 renal
MCF7 breast = system: MCF7 breast
SK-OV-3 ovarian = system: SK-OV-3 ovarian
SK-MEL-2 melanoma = system: SK-MEL-2 melanoma

Compound | GI50 (IGROV1 ovarian) | GI50 (HL-60(TB) leukemia) | TGI (HL-60(TB) leukemia) | GI50 (COLO 205 colon) | TGI (COLO 205 colon) | GI50 (T-47D breast) | TGI (T-47D breast) | GI50 (HOP-92 NSCLC) | TGI (HOP-92 NSCLC) | GI50 (NCI-H522 lung) | GI50 (UO-31 renal) | TGI (UO-31 renal) | GI50 (MCF7 breast) | TGI (MCF7 breast) | GI50 (SK-OV-3 ovarian) | TGI (SK-OV-3 ovarian) | GI50 (SK-MEL-2 melanoma) | TGI (SK-MEL-2 melanoma) | TGI (IGROV1 ovarian) | TGI (NCI-H522 lung)
O=C1c2cc3c(cc2[C@@H]2[C@H]1c1ccc([N+](=O)[O-])cc1C(=O)N2CCCBr)OCO3 | < 0.0136 µM | < 0.01 µM | > 100 µM | < 0.01 µM | > 100 µM | < 0.01 µM | > 100 µM | < 0.01 µM | < 0.01 µM | < 0.0266 µM | < 0.01 µM | > 100 µM | < 0.01 µM | < 0.01 µM | < 0.01 µM | > 100 µM | 2.15 µM | > 100 µM | – | –
O=c1cnn(C2OC(CO)C(O)C2O)c(=S)[nH]1 (stereo unspecified) | – | – | > 100 µM | – | > 100 µM | – | > 100 µM | – | > 100 µM | – | – | > 100 µM | – | > 100 µM | – | > 100 µM | – | > 100 µM | > 100 µM | > 55.4 µM
COc1ccc2c(c1)c(CC(=O)[Se]C)c(C)n2C(=O)c1ccc(Cl)cc1 | > 0.199 µM | > 0.398 µM | > 0.779 µM | > 0.608 µM | > 1 µM | – | > 1 µM | > 0.336 µM | > 0.533 µM | > 0.371 µM | – | > 0.523 µM | > 0.35 µM | > 1 µM | > 0.658 µM | 0.989 µM | > 0.436 µM | > 0.794 µM | > 0.615 µM | > 0.677 µM
N#C/C(=C\c1ccsc1)c1nc2ccccc2o1 | 33.3 µM | > 100 µM | > 100 µM | 39 µM | > 100 µM | 44.7 µM | > 100 µM | 14.4 µM | 42.8 µM | 50.6 µM | 46.4 µM | > 100 µM | 17.8 µM | > 100 µM | 40.7 µM | > 100 µM | 98.5 µM | > 100 µM | > 100 µM | > 100 µM
COc1cccc(-c2c[nH]c3c(N/N=C/c4ccncc4)ncnc23)c1 | 3.9 µM | 1.7 µM | 7.35 µM | 1.2 µM | 4.39 µM | 3.07 µM | > 15.5 µM | 4.96 µM | 19.2 µM | 2.25 µM | 1.75 µM | > 23.7 µM | 1.93 µM | 5.91 µM | 0.903 µM | 3.91 µM | 1.7 µM | 6.15 µM | > 25 µM | 7.78 µM
